Reference: the NIST ThermoML archive (doi:10.1016/j.jct.2004.06.009)

Assay: molar heat capacity at constant pressure
Conditions: 101.33 kPa

CCC12CC3CC(CC(C3)C1)C2 [1-ethyladamantane]
Conditions | molar heat capacity at constant pressure [J/K/mol]
8.03 K, Crystal | 1.395
8.87 K, Crystal | 1.961
9.72 K, Crystal | 2.621
10.57 K, Crystal | 3.39
11.44 K, Crystal | 4.278
12.32 K, Crystal | 5.225
13.21 K, Crystal | 6.255
14.1 K, Crystal | 7.376
14.99 K, Crystal | 8.556
15.9 K, Crystal | 9.727
16.8 K, Crystal | 10.96
17.71 K, Crystal | 12.22
18.62 K, Crystal | 13.48
19.54 K, Crystal | 14.72
20.54 K, Crystal | 16.13
21.56 K, Crystal | 17.52
22.59 K, Crystal | 18.89
23.61 K, Crystal | 20.32
24.63 K, Crystal | 21.67
26.68 K, Crystal | 24.2
27.71 K, Crystal | 25.4
28.74 K, Crystal | 26.62
29.76 K, Crystal | 27.84
30.79 K, Crystal | 29.12
32.85 K, Crystal | 31.29
33.87 K, Crystal | 32.44
34.9 K, Crystal | 33.5
35.93 K, Crystal | 34.39
37.98 K, Crystal | 36.32
39.01 K, Crystal | 37.21
40.03 K, Crystal | 38.15
41.06 K, Crystal | 39
42.08 K, Crystal | 39.94
43.1 K, Crystal | 40.64
44.12 K, Crystal | 41.41
45.14 K, Crystal | 42.16
46.16 K, Crystal | 42.91
47.18 K, Crystal | 43.59
48.2 K, Crystal | 44.12
49.22 K, Crystal | 44.8
50.23 K, Crystal | 45.53
51.25 K, Crystal | 46
52.26 K, Crystal | 46.77
53.27 K, Crystal | 47.66
54.29 K, Crystal | 48.36
55.3 K, Crystal | 49.16
56.32 K, Crystal | 50.02
57.33 K, Crystal | 50.66
60.8 K, Crystal | 53.31
62.77 K, Crystal | 54.44
64.71 K, Crystal | 55.94
65.75 K, Crystal | 56.4
66.79 K, Crystal | 57.48
67.84 K, Crystal | 57.62
68.88 K, Crystal | 58.33
69.92 K, Crystal | 59.01
70.96 K, Crystal | 59.56
72 K, Crystal | 60.08
73.04 K, Crystal | 60.85
74.08 K, Crystal | 61.29
75.11 K, Crystal | 62.33
76.15 K, Crystal | 62.98
77.19 K, Crystal | 63.42
78.22 K, Crystal | 64.33
79.25 K, Crystal | 64.56
80.28 K, Crystal | 65.4
81.31 K, Crystal | 66.12
81.85 K, Crystal | 65.93
82.34 K, Crystal | 66.67
82.88 K, Crystal | 66.84
83.37 K, Crystal | 67.23
83.91 K, Crystal | 67.62
84.26 K, Crystal | 67.63
84.94 K, Crystal | 68.15
85.59 K, Crystal | 68.6
85.97 K, Crystal | 68.8
86.66 K, Crystal | 69.39
87 K, Crystal | 69.66
87.74 K, Crystal | 70.12
88.82 K, Crystal | 70.92
89.89 K, Crystal | 71.56
90.96 K, Crystal | 72.22
92.04 K, Crystal | 72.9
93.11 K, Crystal | 73.4
94.18 K, Crystal | 73.82
95.25 K, Crystal | 75.04
96.32 K, Crystal | 75.51
97.39 K, Crystal | 76.24
98.46 K, Crystal | 76.81
99.54 K, Crystal | 77.83
100.87 K, Crystal | 78.38
102.46 K, Crystal | 79.35
104.05 K, Crystal | 80.35
105.64 K, Crystal | 81.43
107.23 K, Crystal | 82.56
108.82 K, Crystal | 83.52
110.4 K, Crystal | 84.71
111.99 K, Crystal | 85.66
113.57 K, Crystal | 86.76
115.16 K, Crystal | 87.63
116.73 K, Crystal | 88.67
118.31 K, Crystal | 89.74
119.89 K, Crystal | 90.68
121.47 K, Crystal | 91.9
123.04 K, Crystal | 92.76
124.62 K, Crystal | 93.94
126.2 K, Crystal | 94.87
127.77 K, Crystal | 96.09
129.34 K, Crystal | 97.09
130.92 K, Crystal | 97.98
132.49 K, Crystal | 99.07
134.06 K, Crystal | 100.25
135.63 K, Crystal | 101.16
137.2 K, Crystal | 102.25
138.77 K, Crystal | 103.19
140.34 K, Crystal | 104.1
141.9 K, Crystal | 105.44
143.46 K, Crystal | 106.52
145.03 K, Crystal | 107.47
146.59 K, Crystal | 108.5
148.16 K, Crystal | 109.54
149.72 K, Crystal | 110.66
151.28 K, Crystal | 111.92
152.83 K, Crystal | 112.8
154.39 K, Crystal | 113.97
155.94 K, Crystal | 114.98
157.5 K, Crystal | 116.23
159.05 K, Crystal | 117.17
160.6 K, Crystal | 118.16
162.16 K, Crystal | 119.21
163.71 K, Crystal | 120.38
165.26 K, Crystal | 121.36
166.82 K, Crystal | 122.47
168.37 K, Crystal | 123.67
169.92 K, Crystal | 124.78
171.47 K, Crystal | 125.84
173.02 K, Crystal | 126.95
174.57 K, Crystal | 128.01
176.11 K, Crystal | 129.2
177.66 K, Crystal | 130.08
179.2 K, Crystal | 131.06
180.74 K, Crystal | 132.22
182.28 K, Crystal | 133.41
183.82 K, Crystal | 134.59
185.36 K, Crystal | 135.72
186.9 K, Crystal | 136.96
188.44 K, Crystal | 138.08
189.98 K, Crystal | 139.07
191.52 K, Crystal | 140.27
193.06 K, Crystal | 141.34
194.59 K, Crystal | 142.65
196.12 K, Crystal | 143.78
197.65 K, Crystal | 144.95
199.17 K, Crystal | 146.07
200.7 K, Crystal | 147.28
202.23 K, Crystal | 148.71
205.28 K, Crystal | 150.89
206.8 K, Crystal | 152.02
208.31 K, Crystal | 152.99
209.83 K, Crystal | 154.47
211.34 K, Crystal | 155.33
212.86 K, Crystal | 156.65
214.37 K, Crystal | 157.99
215.88 K, Crystal | 159.85
217.38 K, Crystal | 161.46
218.88 K, Crystal | 163.87
220.38 K, Crystal | 167.18
228.19 K, Liquid | 213.96
229.69 K, Liquid | 214.76
231.15 K, Liquid | 216.02
232.62 K, Liquid | 216.73
234.09 K, Liquid | 217.38
235.55 K, Liquid | 218.44
237.02 K, Liquid | 218.96
238.48 K, Liquid | 219.64
239.95 K, Liquid | 220.45
241.41 K, Liquid | 222.1
242.87 K, Liquid | 222.52
244.34 K, Liquid | 223.6
245.81 K, Liquid | 224.53
247.27 K, Liquid | 225.06
248.74 K, Liquid | 225.78
250.2 K, Liquid | 226.74
251.63 K, Liquid | 227.78
253.09 K, Liquid | 228.8
254.56 K, Liquid | 229.67
256.02 K, Liquid | 230.53
257.48 K, Liquid | 231.41
258.94 K, Liquid | 232.48
260.41 K, Liquid | 233.18
261.87 K, Liquid | 234.01
263.33 K, Liquid | 235.14
264.79 K, Liquid | 236.35
266.25 K, Liquid | 237.17
267.71 K, Liquid | 238.18
269.18 K, Liquid | 238.96
270.64 K, Liquid | 240.09
272.1 K, Liquid | 240.99
273.56 K, Liquid | 242.19
274.98 K, Liquid | 242.56
276.44 K, Liquid | 243.82
277.9 K, Liquid | 244.9
279.36 K, Liquid | 245.49
280.82 K, Liquid | 246.39
282.28 K, Liquid | 247.77
283.74 K, Liquid | 248.37
285.2 K, Liquid | 249.48
286.65 K, Liquid | 250.83
288.11 K, Liquid | 251.75
289.57 K, Liquid | 252.24
291.03 K, Liquid | 253.03
292.48 K, Liquid | 254.46
293.94 K, Liquid | 255.49
295.4 K, Liquid | 256.65
296.85 K, Liquid | 257.72
298.28 K, Liquid | 258.45
299.74 K, Liquid | 259.79
301.19 K, Liquid | 260.37
302.65 K, Liquid | 261.81
304.1 K, Liquid | 262.96
305.56 K, Liquid | 263.59
307.02 K, Liquid | 264.26
308.47 K, Liquid | 265.38
309.93 K, Liquid | 266.44
311.38 K, Liquid | 267.77
312.84 K, Liquid | 268.68
314.29 K, Liquid | 268.95
315.75 K, Liquid | 271
317.21 K, Liquid | 271.58
318.66 K, Liquid | 272.26
320.12 K, Liquid | 273.19
321.55 K, Liquid | 274.59
323 K, Liquid | 275.5
324.46 K, Liquid | 276.62
325.92 K, Liquid | 277.16
327.37 K, Liquid | 278.45
328.83 K, Liquid | 279.65
330.29 K, Liquid | 280.77
331.75 K, Liquid | 281.88
332.28 K, Liquid | 282.18
333.21 K, Liquid | 282.65
333.65 K, Liquid | 283.08
334.66 K, Liquid | 283.89
335.01 K, Liquid | 284.12
336.12 K, Liquid | 284.89
336.37 K, Liquid | 285.08
337.58 K, Liquid | 285.8
337.72 K, Liquid | 286.15
339.07 K, Liquid | 287.35
340.41 K, Liquid | 288.22
341.76 K, Liquid | 289.11
342.95 K, Liquid | 290.27
344.28 K, Liquid | 291.29
345.62 K, Liquid | 292.19
346.95 K, Liquid | 292.96
348.28 K, Liquid | 294.44
349.61 K, Liquid | 295.79
350.93 K, Liquid | 296.76
352.25 K, Liquid | 297.68
353.57 K, Liquid | 298.69
354.88 K, Liquid | 299.75
356.19 K, Liquid | 300.53
357.5 K, Liquid | 301.48
358.78 K, Liquid | 302.8
360.08 K, Liquid | 303.82
361.37 K, Liquid | 304.5
362.66 K, Liquid | 305.46
363.76 K, Liquid | 305.56
365.04 K, Liquid | 306.42
366.32 K, Liquid | 307.62
367.59 K, Liquid | 308.68
368.87 K, Liquid | 309.55
370.13 K, Liquid | 310.5
371.4 K, Liquid | 311.2
372.65 K, Liquid | 312.25
373.9 K, Liquid | 313.52
